# Measurements as given in PubChem BioAssay AID1963980 (Molecular Pharmacology Branch, DTP, NCI, 2024).
# System: 475296-252-R-J1-PDC spheroid viability
# Assay: Anticancer human tumor 475296-252-R-J1-PDC patient-derived rectal carcinoma cell line growth inhibition [PI3K]
# Settings: spheroids with HUVEC and MSC; for IC50: curve of first compound; for viability, T/C: stronger effect = lower value
# Outline: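 Spheroid viability read-out. Co-cultures contained the tumor line plus HUVEC and human MSCs. Each agent was paired with a PI3K inhibitor (inavolisib, alpelisib, duvelisib, copanlisib) across half-log dilutions starting at clinical Cmax, or at 10 microM when Cmax was unknown.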
# [1] = second compound 0.00316 µM, first compound 0.000316 µM
# [2] = second compound 0.00316 µM, first compound 0.001 µM
# [3] = second compound 0.00316 µM, first compound 0.00316 µM
# [4] = second compound 0.00316 µM, first compound 0.01 µM
# [5] = second compound 0.00316 µM, first compound 0.0316 µM
# [6] = second compound 0.00316 µM, first compound 0.1 µM
# [7] = second compound 0.01 µM, first compound 0.000316 µM
# [8] = second compound 0.01 µM, first compound 0.001 µM
# [9] = second compound 0.01 µM, first compound 0.00316 µM
# [10] = second compound 0.01 µM, first compound 0.01 µM
# [11] = second compound 0.01 µM, first compound 0.0316 µM
# [12] = second compound 0.01 µM, first compound 0.1 µM
# [13] = second compound 0.0316 µM, first compound 0.000316 µM
# [14] = second compound 0.0316 µM, first compound 0.001 µM
# [15] = second compound 0.0316 µM, first compound 0.00316 µM
# [16] = second compound 0.0316 µM, first compound 0.01 µM
# [17] = second compound 0.0316 µM, first compound 0.0316 µM
# [18] = second compound 0.0316 µM, first compound 0.1 µM
# [19] = second compound 0.1 µM, first compound 0.000316 µM
# [20] = second compound 0.1 µM, first compound 0.001 µM
# [21] = second compound 0.1 µM, first compound 0.00316 µM
# [22] = second compound 0.1 µM, first compound 0.01 µM
# [23] = second compound 0.1 µM, first compound 0.0316 µM
# [24] = second compound 0.1 µM, first compound 0.1 µM
# [25] = second compound 0.316 µM, first compound 0.000316 µM
# [26] = second compound 0.316 µM, first compound 0.001 µM
# [27] = second compound 0.316 µM, first compound 0.00316 µM
# [28] = second compound 0.316 µM, first compound 0.01 µM
# [29] = second compound 0.316 µM, first compound 0.0316 µM
# [30] = second compound 0.316 µM, first compound 0.1 µM
# [31] = second compound 1 µM, first compound 0.000316 µM
# [32] = second compound 1 µM, first compound 0.001 µM
# [33] = second compound 1 µM, first compound 0.00316 µM
# [34] = second compound 1 µM, first compound 0.01 µM
# [35] = second compound 1 µM, first compound 0.0316 µM
# [36] = second compound 1 µM, first compound 0.1 µM
# 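Further: spheroids exposed to agents for seven days before readout.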
compound,measurement,setting,value
CC(C)n1nc(-c2ccc3oc(N)nc3c2)c2c(N)ncnc21 + COc1c(OCCCN2CCOCC2)ccc2c3n(c(=NC(=O)c4cnc(N)nc4)nc12)CCN3,IC50,second compound 0.00316 µM,> 100 nM
same,IC50,second compound 0.01 µM,> 100 nM
same,IC50,second compound 0.0316 µM,> 100 nM
same,IC50,second compound 0.1 µM,98.7 nM
same,IC50,second compound 0.316 µM,49 nM
same,IC50,second compound 1 µM,34.4 nM
same,"viability, T/C",[1],96.8%
same,"viability, T/C",[2],99.5%
same,"viability, T/C",[3],84.6%
same,"viability, T/C",[4],73.2%
same,"viability, T/C",[5],81.4%
same,"viability, T/C",[6],56.9%
same,"viability, T/C",[7],96.5%
same,"viability, T/C",[8],90.7%
same,"viability, T/C",[9],97.4%
same,"viability, T/C",[10],92%
same,"viability, T/C",[11],75.2%
same,"viability, T/C",[12],64.3%
same,"viability, T/C",[13],91.4%
same,"viability, T/C",[14],85.8%
same,"viability, T/C",[15],101%
same,"viability, T/C",[16],82%
same,"viability, T/C",[17],81.9%
same,"viability, T/C",[18],51.7%
same,"viability, T/C",[19],95.2%
same,"viability, T/C",[20],84.8%
same,"viability, T/C",[21],78.8%
same,"viability, T/C",[22],79.6%
same,"viability, T/C",[23],68.8%
same,"viability, T/C",[24],48.3%
same,"viability, T/C",[25],71.7%
same,"viability, T/C",[26],67.6%
same,"viability, T/C",[27],68.2%
same,"viability, T/C",[28],73%
same,"viability, T/C",[29],56.5%
same,"viability, T/C",[30],35.2%
same,"viability, T/C",[31],60.8%
same,"viability, T/C",[32],56.7%
same,"viability, T/C",[33],59.5%
same,"viability, T/C",[34],55.6%
same,"viability, T/C",[35],51.6%
same,"viability, T/C",[36],35.6%
CC(=O)c1c(C)c2cnc(Nc3ccc(N4CCNCC4)cn3)nc2n(C2CCCC2)c1=O + CC(Nc1ccc2c(c1)OCCn1cc(N3C(=O)OCC3C(F)F)nc1-2)C(N)=O,IC50,second compound 0.00316 µM,> 100 nM
same,IC50,second compound 0.01 µM,> 100 nM
same,IC50,second compound 0.0316 µM,> 100 nM
same,IC50,second compound 0.1 µM,> 100 nM
same,IC50,second compound 0.316 µM,> 100 nM
same,IC50,second compound 1 µM,> 100 nM
same,"viability, T/C",[1],93.5%
same,"viability, T/C",[2],86.6%
same,"viability, T/C",[3],101%
same,"viability, T/C",[4],93.5%
same,"viability, T/C",[5],119%
same,"viability, T/C",[6],97.2%
same,"viability, T/C",[7],102%
same,"viability, T/C",[8],91.3%
same,"viability, T/C",[9],94%
same,"viability, T/C",[10],83.2%
same,"viability, T/C",[11],97%
same,"viability, T/C",[12],100%
same,"viability, T/C",[13],97.5%
same,"viability, T/C",[14],101%
same,"viability, T/C",[15],91.3%
same,"viability, T/C",[16],93.5%
same,"viability, T/C",[17],104%
same,"viability, T/C",[18],110%
same,"viability, T/C",[19],90.4%
same,"viability, T/C",[20],91.8%
same,"viability, T/C",[21],100%
same,"viability, T/C",[22],103%
same,"viability, T/C",[23],96.1%
same,"viability, T/C",[24],88.6%
same,"viability, T/C",[25],93.5%
same,"viability, T/C",[26],96.2%
same,"viability, T/C",[27],83%
same,"viability, T/C",[28],85.4%
same,"viability, T/C",[29],109%
same,"viability, T/C",[30],91.7%
same,"viability, T/C",[31],85.4%
same,"viability, T/C",[32],90.1%
same,"viability, T/C",[33],87.2%
same,"viability, T/C",[34],91.2%
same,"viability, T/C",[35],93.2%
same,"viability, T/C",[36],100%
